In patent US20160207969A1, “CLOSTRIDIUM DIFFICILE TARGETING MOIETIES AND CONSTRUCTS COMPRISING SAID MOIETIES” (C3 Jian, Inc., priority 2014, published 2016):
Ends that are not written are not given here.

Key:
[1] = system: C. difficile isolate CD1382 (ATCC 630, strain 1382); conditions: ATCC 630, 24 h
[2] = system: C. difficile isolate CD1803 (ATCC BAA-1803); conditions: ATCC BAA-1803, 24 h
[3] = system: C. difficile isolate CD1875 (ATCC BAA-1875); conditions: ATCC BAA-1875, 24 h
[4] = system: C. difficile isolate CD43255 (ATCC 43255); conditions: ATCC 43255, 24 h
[5] = system: C. difficile isolate CD43601 (ATCC 43601, non-toxigenic); conditions: ATCC 43601, 24 h
[6] = system: B. fragilis; conditions: 24 h
[7] = system: L. casei; conditions: 24 h
[8] = system: Trubrum; assay: MIC of antimicrobial peptides (Table 3); format: cell-based
[9] = system: B. fragilis; assay: Peptide killing kinetics (CFU plating, co-culture); format: cell-based; conditions: for activity on un-targeted organism B. fragilis compared to the levels seen on C. difficile isolate 1803: killing kinetics; for surviving B. fragilis: through 2 hours of STAMP exposure
[10] = system: C. difficile isolate 1803; conditions: Clostridium difficile, 15 min
[11] = system: C. difficile; assay: MIC of antimicrobial peptides (Table 3); format: cell-based; conditions: unit not given

Substance | MIC values [1] [µg/mL] | MIC values [2] [µg/mL] | MIC values [3] [µg/mL] | MIC values [4] [µg/mL] | MIC values [5] [µg/mL] | MIC values [6] [µg/mL] | MIC values [7] [µg/mL] | Organism MIC [8] | activity on un-targeted organism B. fragilis compared to the levels seen on C. difficile isolate 1803 [9] | surviving B. fragilis [9] | viable C. difficile recovered [10] [%] | Organism MIC [11]
LATLKKYLKEHKKMGKIFGAIWPLALGALKNLIK-NH2 [CD0126 + Lys_A1_M3] | 3.9 | 7.8 | 7.8 | 7.8 | 7.8 | >250 | >250 |  |  |  |  | 
VPAKLLRVIDEIPKLFKFLRKHLL-NH2 [CD0714 + BD2-21_NG] | 7.8 | 15.6 | 15.6 | 7.8 | 3.9 | >250 | 125 |  |  |  |  | 
GSVIKKRRKRMAKKKHRKLLKKTRIQRRRAGK [PF-527] |  |  |  |  |  |  |  | Trubrum, 25 μM |  |  |  | 
VPAKLLRVIKKIPGGFLKFLKKFFKKLK-NH2 [CD0714 + AF5_2G_M4] | 3.9 | 7.8 | 15.6 | 7.8 | 3.9 | 62.5 | 125 |  |  |  |  | 
MKRRRCNWCGKLFYLEEKSKEAYCCKECRKKAKKVKK (Antimicrobial peptide) [PF-307] |  |  |  |  |  |  |  | Trubrum, 50 μM |  |  |  | 
WSRVPGHSDTGWKVWHRW (Antimicrobial peptide) [PF-547] |  |  |  |  |  |  |  | Trubrum, 25 μM |  |  |  | 
NILRVLKQVWKGGGKNLRIIRKGIHIIKKY-NH2 (C-terminus assumed) [CD9232_G2_3G] | 3.9 | 7.8 | 31.3 | 7.8 | 7.8 | 15.6 | 125 |  | less active | did not significantly decrease | < 90 | 
LATKLKYEKEHKKMGKIFGAIWPLALGALKNLIK-NH2 [CD0126 + Lys_A1_1G] | 7.8 | 7.8 | 15.6 | 15.6 | 15.6 | >250 | >250 |  |  |  | < 90 | 
VLPFPAIPLSRRRACVAAPRPRSRQRAS (Antimicrobial peptide) [PF-168] |  |  |  |  |  |  |  | Trubrum, 50 μM |  |  |  | 
FELVDWLETNLGKILKSKSA (Antimicrobial peptide) [PF-522] |  |  |  |  |  |  |  |  |  |  |  | C. difficile, 25
MIRIRSPTKKKLNRNSISDWKSNTSGRFFY (Antimicrobial peptide) [PF-283] |  |  |  |  |  |  |  | Trubrum, 50 μM |  |  |  | 
VPAKLLRVIDEIPGGKIFGAIWPLALGALKNLIK-NH2 [CD0714 + Lys_A1_2G] | 31.3 | 125 | 31.3 | 62.5 | 15.6 | >250 | >250 |  |  |  |  | 
MRFGSLALVAYDSAIKHSWPRPSSVRRLRM (Antimicrobial peptide) [PF-672] |  |  |  |  |  |  |  | Trubrum, 0.78 μM |  |  |  | 
GNFYRLFKDILKGGGKNLRIIRKGIHIIKKY-NH2 (C-terminus assumed) [CD8040_G2_3G] | 15.6 | 15.6 | 62.5 | 31.3 | 31.3 | 62.5 | >250 |  | less active | did not significantly decrease | < 90 | 
LATKLKYEKEHKKMGGGGFLKFLKKFFKKLKYY-NH2 [CD0126 + AF5_4G] | 15.6 | 31.3 | 15.6 | 15.6 | 7.8 | >250 | >250 |  | less active | did not significantly decrease | < 90 | 
VPAKLLRVIDEIPGGFLKFLKKFFKKLKY-NH2 [CD0714 + AF5_2G] | 31.3 | 62.5 | 62.5 | 31.3 |  | >250 | >250 |  |  |  |  | 
LSLATFAKIFMTRSNWSLKRFNRL (Antimicrobial peptide) [PF-278] |  |  |  |  |  |  |  | Trubrum, 50 μM |  |  |  | 
VPAKLLRVIKEIPGGFLKFLKKFFKKLK-NH2 [CD0714 + AF5_2G_M7] | 7.8 | 3.9 | 15.6 | 3.9 | 7.8 | >250 | >250 |  |  |  |  | 
